# Data: article PMC11149885 (PLOS ONE, 2024)
# “And” between values parts separate entries of the source, which are not always exact repeats. Identical values can stand only once.
# Tests used:
# [1] = synthetic melanin, 0.06 to 25.0μM, 37°C, 1 hour, ± SEM
# TIE2 [2] = target: T1, TIE2 (Homo sapiens, UniProt Q02763); assay: Ten-dose IC50 measurement; settings: 10μM ATP
# PDGFRβ = target: T2, PDGFRβ (Homo sapiens, UniProt P09619); assay: HotSpot kinase screen; assay type: biochemical; settings: 10μM ATP
# T2 construct: purchased Reaction Biology Corporation (contract assay)
# TIE2 [3] = target: T1, TIE2; assay: HotSpot kinase screen; assay type: biochemical; parameters: purchased Reaction Biology Corporation (contract assay); settings: 1uM TKI, 10μM ATP
# VEGFR1 [4] = target: T3, VEGFR1 (Homo sapiens, UniProt P17948); assay: HotSpot kinase screen; assay type: biochemical; parameters: purchased Millipore Corporation (Dundee, Scotland) or Reaction Biology Corporation (contract assay); settings: 10μM ATP
# Procedure: (§1) Measurement of kinase activity was performed by Reaction Biology Corporation (Reaction Biology Corporation, Malvern, PA), using the HotSpot™ assay. The screen focused on RTKs reported in the literature to play a major role in the regulation of angiogenesis (VEGFR1, VEGFR2, and VEGFR3; fibroblast growth factor receptor [FGFR] 1, 2, and 3; and platelet-derived growth factor receptor beta [PDGFRβ]) as well as an RTK essential for maintaining blood vessel stability (TIE2). For the profiling, specific kinase/substrate pairs and required cofactors were prepared in a reaction buffer (20mM Hepes [pH 7.5], 10mM MgCl2, 1mM EGTA, 0.02% Brij35, 0.02 mg/mL BSA, 0.1mM Na3VO4, 2mM DTT, 1% dimethyl sulfoxide [DMSO]). TKI compounds were diluted to 10μM and 1μM concentrations for the screens and after addition to the reaction buffer incubated for 20 minutes, followed by the addition of a mixture of ATP (Sigma, St. Louis, MO) and ^33P-ATP (Perkin Elmer, Waltham, MA) to a final ATP concentration of 10μM. Reactions were carried out at room temperature for 2 hours, followed by spotting of the reactions onto P81 ion exchange filter paper (Whatman Inc., Piscataway, NJ). Unbound phosphate was removed by extensive washing of the filters. […] Kinome TREEspot images representing levels of inhibition were prepared using Kinome Mapper (https://www.reactionbiology.com/resources/tools/kinase-mapper).
# FGFR1 = target: T4, FGFR1 (Homo sapiens, UniProt P11362); assay: HotSpot kinase screen; assay type: biochemical; settings: 10μM ATP
# T4 construct: purchased Reaction Biology Corporation (contract assay)
# [5] = system: VEGF-induced angiogenesis on the CAM; assay: Gelatin sponge chick chorioallantoic membrane (CAM) assay
# FGFR3 = target: T5, FGFR3 (Homo sapiens, UniProt P22607); assay: HotSpot kinase screen; assay type: biochemical; settings: 1uM TKI, 10μM ATP
# T5 construct: purchased Reaction Biology Corporation (contract assay)
# FGFR2 = target: T6, FGFR2 (Homo sapiens, UniProt P21802); assay: HotSpot kinase screen; assay type: biochemical; settings: 10μM ATP
# T6 construct: purchased Reaction Biology Corporation (contract assay)
# Procedure: as §1
# VEGFR3 [6] = target: T7, VEGFR3 (Homo sapiens, UniProt P35916); assay: HotSpot kinase screen; assay type: biochemical; settings: 10μM ATP
# T7 construct: purchased Millipore Corporation (Dundee, Scotland) or Reaction Biology Corporation (contract assay)
# Procedure: as §1
# [7] = system: VEGF-A–induced sprouting of HUVECs; assay: HUVEC spheroid sprouting assay; assay type: cell-based, human; settings: for cumulative sprout length per spheroid (CSL), mean: 25 ng/mL VEGF-165, 24 hours
# Procedure: The three TKI compounds were tested by Reaction Biology Europe (Freiburg, Germany) in the spheroid-based cellular angiogenesis assay to determine their effect on VEGF-A–induced sprouting of HUVECs. Primary HUVECs from pooled donors at passage 3 to 4 (PromoCell, Heidelberg, Germany) were grown in endothelial cell growth and basal medium (ECGM/ECBM, PromoCell). Test compounds were prepared as 100-fold concentrated stock solutions in DMSO and pre-diluted in basal medium. HUVECs were stimulated using 25 ng/mL VEGF-165 (Reaction Biology Europe, Freiburg, Germany) pre-diluted in basal medium.
# Spheroids were prepared as described by pipetting 400 HUVECs in a hanging drop on plastic dishes to allow overnight spheroid aggregation. Fifty HUVEC spheroids were seeded in 0.9 mL of a collagen gel and pipetted into individual wells of a 24-well plate to allow polymerization. Test compounds and VEGF-165 were added after 30 minutes by pipetting 100 μL of a ten-fold concentrated solution onto the polymerized gel. Plates were incubated at 37°C for 24 hours, and cells were fixed by adding 4% paraformaldehyde (Roth, Karlsruhe, Germany). Sprouting intensity of HUVEC spheroids treated with the test samples was quantitated using an image analysis system to determine the cumulative sprout length (CSL) per spheroid. Images of single spheroids were captured using an inverted microscope and the digital imaging software NIS-Elements BR 3.0 (Nikon). Spheroid pictures were uploaded to Wimasis (www.wimasis.com) for image analysis. The CSL of each spheroid was determined using the imaging analysis tool WimSprout. The mean CSL of ten randomly selected spheroids was analyzed as an individual data point.
# VEGFR1 [8] = target: T3, VEGFR1; assay: Ten-dose IC50 measurement; settings: 10μM ATP
# VEGFR3 [9] = target: T7, VEGFR3; assay: Ten-dose IC50 measurement; assay type: biochemical; settings: 10μM ATP
# T7 sequence (P35916 25-1363): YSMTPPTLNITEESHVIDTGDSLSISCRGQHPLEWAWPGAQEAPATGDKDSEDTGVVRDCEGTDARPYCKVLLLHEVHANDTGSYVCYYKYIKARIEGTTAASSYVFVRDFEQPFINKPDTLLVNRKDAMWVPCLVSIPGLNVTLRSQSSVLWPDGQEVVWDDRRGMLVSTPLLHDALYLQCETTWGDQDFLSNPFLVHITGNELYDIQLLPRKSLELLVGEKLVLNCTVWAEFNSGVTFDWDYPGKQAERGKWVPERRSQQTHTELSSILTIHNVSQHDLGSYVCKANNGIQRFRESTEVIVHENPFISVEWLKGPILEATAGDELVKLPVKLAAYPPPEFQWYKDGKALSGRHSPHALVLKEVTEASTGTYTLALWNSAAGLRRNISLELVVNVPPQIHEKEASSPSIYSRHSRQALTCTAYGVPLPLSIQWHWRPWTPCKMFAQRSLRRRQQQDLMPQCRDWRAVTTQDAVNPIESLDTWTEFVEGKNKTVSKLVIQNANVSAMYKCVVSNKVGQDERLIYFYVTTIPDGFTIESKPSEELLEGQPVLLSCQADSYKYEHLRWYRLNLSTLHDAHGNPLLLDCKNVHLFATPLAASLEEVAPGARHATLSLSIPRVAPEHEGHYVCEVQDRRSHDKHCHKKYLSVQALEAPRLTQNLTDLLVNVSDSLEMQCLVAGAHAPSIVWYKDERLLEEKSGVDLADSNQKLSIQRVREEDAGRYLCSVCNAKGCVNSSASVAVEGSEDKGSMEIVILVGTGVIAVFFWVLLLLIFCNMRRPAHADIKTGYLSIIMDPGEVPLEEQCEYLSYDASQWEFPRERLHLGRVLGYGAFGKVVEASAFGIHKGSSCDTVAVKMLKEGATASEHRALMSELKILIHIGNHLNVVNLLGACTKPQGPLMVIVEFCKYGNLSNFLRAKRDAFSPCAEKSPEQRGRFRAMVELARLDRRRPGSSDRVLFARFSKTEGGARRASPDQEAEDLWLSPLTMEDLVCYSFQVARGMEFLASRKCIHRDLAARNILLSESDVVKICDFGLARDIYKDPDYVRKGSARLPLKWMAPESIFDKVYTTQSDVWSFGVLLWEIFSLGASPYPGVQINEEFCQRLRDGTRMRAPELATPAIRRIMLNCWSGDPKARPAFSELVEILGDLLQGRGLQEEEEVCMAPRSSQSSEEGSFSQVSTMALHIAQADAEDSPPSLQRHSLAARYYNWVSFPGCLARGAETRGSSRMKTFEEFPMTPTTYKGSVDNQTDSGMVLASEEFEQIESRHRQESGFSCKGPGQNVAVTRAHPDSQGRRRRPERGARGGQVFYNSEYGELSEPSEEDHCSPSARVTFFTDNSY
# T1 sequence (Q02763 23-1124): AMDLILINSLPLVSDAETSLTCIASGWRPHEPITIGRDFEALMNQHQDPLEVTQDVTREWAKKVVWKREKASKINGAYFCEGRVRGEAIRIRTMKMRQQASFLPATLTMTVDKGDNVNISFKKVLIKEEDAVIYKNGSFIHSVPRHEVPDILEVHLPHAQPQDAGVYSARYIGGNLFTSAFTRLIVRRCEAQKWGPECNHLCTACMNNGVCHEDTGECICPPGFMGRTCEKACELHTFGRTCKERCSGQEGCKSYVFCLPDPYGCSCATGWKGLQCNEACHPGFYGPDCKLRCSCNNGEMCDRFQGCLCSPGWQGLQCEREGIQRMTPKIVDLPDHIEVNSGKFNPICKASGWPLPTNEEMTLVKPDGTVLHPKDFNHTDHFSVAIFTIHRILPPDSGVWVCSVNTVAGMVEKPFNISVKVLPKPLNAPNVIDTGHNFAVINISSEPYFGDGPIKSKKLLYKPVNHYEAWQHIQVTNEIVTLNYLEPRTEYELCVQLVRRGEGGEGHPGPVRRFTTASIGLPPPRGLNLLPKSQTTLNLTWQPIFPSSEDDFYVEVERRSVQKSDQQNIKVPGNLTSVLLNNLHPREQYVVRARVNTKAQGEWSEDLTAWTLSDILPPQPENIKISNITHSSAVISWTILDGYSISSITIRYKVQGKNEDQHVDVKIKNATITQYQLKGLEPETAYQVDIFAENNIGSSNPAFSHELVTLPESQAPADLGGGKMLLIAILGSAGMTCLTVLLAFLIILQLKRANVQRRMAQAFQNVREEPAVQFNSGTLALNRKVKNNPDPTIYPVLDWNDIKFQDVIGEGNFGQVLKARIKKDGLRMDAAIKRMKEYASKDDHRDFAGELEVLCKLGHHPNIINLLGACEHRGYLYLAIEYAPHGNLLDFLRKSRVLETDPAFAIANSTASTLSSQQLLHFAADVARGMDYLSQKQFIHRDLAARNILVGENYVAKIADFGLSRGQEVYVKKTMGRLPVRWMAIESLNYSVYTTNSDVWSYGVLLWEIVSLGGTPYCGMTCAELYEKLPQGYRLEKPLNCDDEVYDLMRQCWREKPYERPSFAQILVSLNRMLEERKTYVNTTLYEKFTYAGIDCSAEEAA
# T3 sequence (P17948 27-1338): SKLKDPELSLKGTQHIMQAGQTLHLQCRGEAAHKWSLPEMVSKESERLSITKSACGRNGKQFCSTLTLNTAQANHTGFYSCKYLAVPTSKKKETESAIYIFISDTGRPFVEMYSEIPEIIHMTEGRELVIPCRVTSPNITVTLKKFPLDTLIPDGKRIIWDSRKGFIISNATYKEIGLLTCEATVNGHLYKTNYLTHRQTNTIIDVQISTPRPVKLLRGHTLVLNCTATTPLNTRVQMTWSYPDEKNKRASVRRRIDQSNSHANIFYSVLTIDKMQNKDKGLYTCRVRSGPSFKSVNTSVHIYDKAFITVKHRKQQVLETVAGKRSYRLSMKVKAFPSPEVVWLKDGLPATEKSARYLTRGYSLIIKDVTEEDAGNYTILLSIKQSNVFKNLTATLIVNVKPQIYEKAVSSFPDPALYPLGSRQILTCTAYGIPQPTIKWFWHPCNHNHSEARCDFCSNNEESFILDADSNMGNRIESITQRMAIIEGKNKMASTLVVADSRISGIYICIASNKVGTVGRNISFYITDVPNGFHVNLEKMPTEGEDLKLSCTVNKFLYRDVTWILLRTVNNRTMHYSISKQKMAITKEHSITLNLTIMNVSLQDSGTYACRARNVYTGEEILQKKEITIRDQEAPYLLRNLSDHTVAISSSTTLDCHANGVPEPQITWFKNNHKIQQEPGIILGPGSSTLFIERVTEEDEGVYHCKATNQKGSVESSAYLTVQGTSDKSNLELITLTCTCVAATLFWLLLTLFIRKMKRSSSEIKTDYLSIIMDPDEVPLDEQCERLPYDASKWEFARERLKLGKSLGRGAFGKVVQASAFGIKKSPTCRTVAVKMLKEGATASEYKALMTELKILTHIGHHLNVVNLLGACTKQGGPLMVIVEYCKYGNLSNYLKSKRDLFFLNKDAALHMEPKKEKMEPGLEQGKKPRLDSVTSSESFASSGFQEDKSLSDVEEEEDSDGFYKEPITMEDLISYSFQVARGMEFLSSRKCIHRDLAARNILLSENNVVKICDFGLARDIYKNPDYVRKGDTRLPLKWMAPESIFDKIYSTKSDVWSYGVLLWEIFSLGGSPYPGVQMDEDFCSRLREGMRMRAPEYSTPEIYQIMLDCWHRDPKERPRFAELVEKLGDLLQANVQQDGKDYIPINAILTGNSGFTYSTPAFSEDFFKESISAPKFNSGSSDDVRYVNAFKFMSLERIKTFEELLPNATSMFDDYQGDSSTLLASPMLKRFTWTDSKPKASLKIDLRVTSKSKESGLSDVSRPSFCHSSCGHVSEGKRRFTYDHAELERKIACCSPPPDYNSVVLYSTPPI
# T6 sequence (P21802 22-821): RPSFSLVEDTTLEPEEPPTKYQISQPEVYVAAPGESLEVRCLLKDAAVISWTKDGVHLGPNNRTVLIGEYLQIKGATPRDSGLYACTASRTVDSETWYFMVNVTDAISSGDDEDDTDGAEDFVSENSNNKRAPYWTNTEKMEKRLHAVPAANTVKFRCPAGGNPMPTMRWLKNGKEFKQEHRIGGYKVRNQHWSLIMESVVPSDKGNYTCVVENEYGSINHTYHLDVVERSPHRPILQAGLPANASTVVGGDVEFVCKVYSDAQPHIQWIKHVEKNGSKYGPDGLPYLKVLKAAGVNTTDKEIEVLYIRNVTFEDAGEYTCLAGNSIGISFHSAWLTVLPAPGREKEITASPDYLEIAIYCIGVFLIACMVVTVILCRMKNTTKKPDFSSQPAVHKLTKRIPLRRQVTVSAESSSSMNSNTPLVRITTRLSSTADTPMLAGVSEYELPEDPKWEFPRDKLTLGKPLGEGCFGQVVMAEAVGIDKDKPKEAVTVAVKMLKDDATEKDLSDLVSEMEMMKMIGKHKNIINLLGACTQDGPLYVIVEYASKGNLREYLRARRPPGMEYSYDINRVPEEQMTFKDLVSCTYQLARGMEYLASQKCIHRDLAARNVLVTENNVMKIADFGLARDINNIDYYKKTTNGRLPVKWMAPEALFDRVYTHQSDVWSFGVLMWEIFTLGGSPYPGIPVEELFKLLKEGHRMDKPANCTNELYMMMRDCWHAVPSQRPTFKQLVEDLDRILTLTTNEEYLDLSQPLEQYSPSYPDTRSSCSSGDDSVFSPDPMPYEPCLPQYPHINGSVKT
structure (smiles),measurement,setting,value
CCN(CC)CCCC(C)Nc1ccnc2cc(Cl)ccc12 (stereo not drawn) [Chloroquine],Kd,[1],3.06 ± 0.6 µM
CCN(CC)CCNC(=O)c1c(C)[nH]c(/C=C2\C(=O)Nc3ccc(F)cc32)c1C [Sunitinib],%Activity TIE2,TIE2 [2]; 1.00E-05 M TKI,44.88%
same,%Activity TIE2,TIE2 [2]; 1.11E-06 M TKI,93.41%
same,%Activity TIE2,TIE2 [2]; 1.37E-08 M TKI,98.62%
same,%Activity TIE2,TIE2 [2]; 1.52E-09 M TKI,99.65%
same,%Activity TIE2,TIE2 [2]; 3.33E-06 M TKI,74.48%
same,%Activity TIE2,TIE2 [2]; 3.70E-07 M TKI,96.23%
same,%Activity TIE2,TIE2 [2]; 4.12E-08 M TKI,95.60%
same,%Activity TIE2,TIE2 [2]; 4.57E-09 M TKI,97.42%
same,%Activity TIE2,TIE2 [2]; 5.08E-10 M TKI,95.09%
same,Avg % Inhibition PDGFRb,PDGFRβ; 1uM TKI,92.22%
same,Avg % Inhibition PDGFRb,PDGFRβ; 10uM TKI,97.19%
same,Avg % Inhibition TIE2,TIE2 [3],5.03%
same,Avg % Inhibition TIE2,TIE2 [3]; listed as sunitinib,5%
same,Avg % Inhibition VEGFR1,VEGFR1 [4]; 1uM TKI,77.03%
same,Avg % Inhibition VEGFR1,VEGFR1 [4]; 10uM TKI,93.14%
same,Avg % Inhibition FGFR1,FGFR1; 1uM TKI,61.61%
same,Avg % Inhibition FGFR1,FGFR1; 10uM TKI,93.09%
same,"Angiogenesis - Vessel number, Mean",[5]; TKI at 200 x VEGFR2 IC50,7
same,"Angiogenesis - Vessel number, individual egg","[5]; TKI at 200 x VEGFR2 IC50, one value per egg",8.67 and 8.33 and 1.67 and 6.67 and 3.33
same,reduction of the number of blood vessels perfusing the sponges vs negative control,[5]; TKI at 200× VEGFR2 IC50 dose,49.3%
same,"Angiogenesis - Vessel thickness score, Mean","[5]; TKI at VEGFR2 IC50 dose, score 0-3",1.8
same,"Angiogenesis - Vessel thickness score, individual egg","[5]; TKI at VEGFR2 IC50 dose, score 0-3, one value per egg",3 and 0.67 and 2 and 2.33 and 1.33 and 1
same,Avg % Inhibition FGFR3,FGFR3,79.29%
same,Avg % Inhibition FGFR2,FGFR2; 1uM TKI,77.42%
same,Avg % Inhibition FGFR2,FGFR2; 10uM TKI,98.03%
same,Avg % Inhibition VEGFR3,VEGFR3 [6]; 1uM TKI,86.7%
same,Avg % Inhibition VEGFR3,VEGFR3 [6]; 10uM TKI,99.18%
same,"cumulative sprout length per spheroid (CSL), mean",[7]; 1.00E-05 M TKI,99
same,"cumulative sprout length per spheroid (CSL), mean",[7]; 1.00E-06 M TKI,298
same,"cumulative sprout length per spheroid (CSL), mean",[7]; 1.00E-07 M TKI,387
same,"cumulative sprout length per spheroid (CSL), mean",[7]; 3.00E-06 M TKI,173
same,"cumulative sprout length per spheroid (CSL), mean",[7]; 3.00E-07 M TKI,230
same,"cumulative sprout length per spheroid (CSL), mean",[7]; 3.00E-08 M TKI,893
same,vessel sprouting (representative spheroid images),[7]; highest test concentration of 1×10^–5M,zero vessel sprouting
same,%Activity VEGFR1,VEGFR1 [8]; 1.00E-05 M TKI,2.53%
same,%Activity VEGFR1,VEGFR1 [8]; 1.11E-06 M TKI,20.58%
same,%Activity VEGFR1,VEGFR1 [8]; 1.37E-08 M TKI,78.18%
same,%Activity VEGFR1,VEGFR1 [8]; 1.52E-09 M TKI,84.25%
same,%Activity VEGFR1,VEGFR1 [8]; 3.33E-06 M TKI,8.53%
same,%Activity VEGFR1,VEGFR1 [8]; 3.70E-07 M TKI,35.25%
same,%Activity VEGFR1,VEGFR1 [8]; 4.12E-08 M TKI,63.70%
same,%Activity VEGFR1,VEGFR1 [8]; 4.57E-09 M TKI,84.35%
same,%Activity VEGFR1,VEGFR1 [8]; 5.08E-10 M TKI,93.32%
same,%Activity VEGFR3,VEGFR3 [9]; 1.00E-05 M TKI,1.67%
same,%Activity VEGFR3,VEGFR3 [9]; 1.11E-06 M TKI,9.53%
same,%Activity VEGFR3,VEGFR3 [9]; 1.23E-07 M TKI,31.11%
same,%Activity VEGFR3,VEGFR3 [9]; 1.37E-08 M TKI,63.61%
same,%Activity VEGFR3,VEGFR3 [9]; 1.52E-09 M TKI,80.77%
same,%Activity VEGFR3,VEGFR3 [9]; 3.33E-06 M TKI,3.43%
same,%Activity VEGFR3,VEGFR3 [9]; 3.70E-07 M TKI,18.20%
same,%Activity VEGFR3,VEGFR3 [9]; 4.12E-08 M TKI,47.10%
same,%Activity VEGFR3,VEGFR3 [9]; 4.57E-09 M TKI,73.23%
same,%Activity VEGFR3,VEGFR3 [9]; 5.08E-10 M TKI,86.68%
